This test deals with microfilariae of Dirofilaria immitis. Briefly: Dirofilaria immitis, Microfilaria (DiMF) In vitro Assay. The class given is cell-based. Conditions: 72 h, read-out: DiMF Minimum Effective Dose (MED), approximately 72 hours incubation, microfilariae assessed for survival or paralysis.

The structures appear in SMILES notation.

For the compound `CC(C)C[C@H]1C(=O)O[C@H](Cc2ccc(Cn3ccnc3-c3ccccc3)cc2)C(=O)N(C)[C@@H](CC(C)C)C(=O)O[C@H](C)C(=O)N(C)[C@@H](CC(C)C)C(=O)O[C@H](Cc2ccc(Cn3ccnc3-c3ccccc3)cc2)C(=O)N(C)[C@@H](CC(C)C)C(=O)O[C@H](C)C(=O)N1C` [Example 6-11, (3S,6R,9S,12R,15S,18R,21S,24R)-3,9,15,21-tetraisobutyl-4,6,10,16,18,22-hexamethyl-12,24-bis(4-((2-phenyl-1H-imidazol-1-yl)methyl)benzyl)-1,7,13,19-tetraoxa-4,10,16,22-tetraazacyclotetracosan-2,5,8,11,14,17,20,23-octaone], the minimal effective concentration was 0.01 to 0.1 µM.

In the case of `Cc1cn(Cc2ccc(C[C@H]3OC(=O)[C@H](CC(C)C)N(C)C(=O)[C@@H](C)OC(=O)[C@H](CC(C)C)N(C)C(=O)[C@@H](Cc4ccc(Cn5cnc(C)c5)cc4)OC(=O)[C@H](CC(C)C)N(C)C(=O)[C@@H](C)OC(=O)[C@H](CC(C)C)N(C)C3=O)cc2)cn1` [Example 6-14, (3S,6R,9S,12R,15S,18R,21S,24R)-3,9,15,21-tetraisobutyl-4,6,10,16,18,22-hexamethyl-12,24-bis(4-((4-methyl-1H-imidazol-1-yl)methyl)benzyl)-1,7,13,19-tetraoxa-4,10,16,22-tetraazacyclotetracosan-2,5,8,11,14,17,20,23-octaone], the minimal effective concentration lay in the range of 0.01 to 0.1 µM.

Take `CC(C)C[C@H]1C(=O)O[C@H](Cc2ccc(Cn3ccnc3CO)cc2)C(=O)N(C)[C@@H](CC(C)C)C(=O)O[C@H](C)C(=O)N(C)[C@@H](CC(C)C)C(=O)O[C@H](Cc2ccc(Cn3ccnc3CO)cc2)C(=O)N(C)[C@@H](CC(C)C)C(=O)O[C@H](C)C(=O)N1C` [Example 6-16, (3S,6R,9S,12R,15S,18R,21S,24R)-6,18-bis(4-((2-(hydroxymethyl)-1H-imidazol-1-yl)methyl)benzyl)-3,9,15,21-tetraisobutyl-4,10,12,16,22,24-hexamethyl-1,7,13,19-tetraoxa-4,10,16,22-tetraazacyclotetracosan-2,5,8,11,14,17,20,23-octaone]: the minimal effective concentration is 0.001 to 0.01 µM.

Consider `CC(C)C[C@H]1C(=O)O[C@H](Cc2ccc(Cn3ccnc3-c3cncs3)cc2)C(=O)N(C)[C@@H](CC(C)C)C(=O)O[C@H](C)C(=O)N(C)[C@@H](CC(C)C)C(=O)O[C@H](Cc2ccc(Cn3ccnc3-c3cncs3)cc2)C(=O)N(C)[C@@H](CC(C)C)C(=O)O[C@H](C)C(=O)N1C` [Example 6-18, (3S,6R,9S,12R,15S,18R,21S,24R)-3,9,15,21-tetraisobutyl-4,6,10,16,18,22-hexamethyl-12,24-bis(4-((2-(thiazol-5-yl)-1H-imidazol-1-yl)methyl)benzyl)-1,7,13,19-tetraoxa-4,10,16,22-tetraazacyclotetracosan-2,5,8,11,14,17,20,23-octaone], for which the minimal effective concentration was in the range of 0.01 to 0.1 µM.

For `COCc1nccn1Cc1ccc(C[C@H]2OC(=O)[C@H](CC(C)C)N(C)C(=O)[C@@H](C)OC(=O)[C@H](CC(C)C)N(C)C(=O)[C@@H](Cc3ccc(Cn4ccnc4COC)cc3)OC(=O)[C@H](CC(C)C)N(C)C(=O)[C@@H](C)OC(=O)[C@H](CC(C)C)N(C)C2=O)cc1` [Example 6-19, (3S,6R,9S,12R,15S,18R,21S,24R)-3,9,15,21-tetraisobutyl-6,18-bis(4-((2-(methoxymethyl)-1H-imidazol-1-yl)methyl)benzyl)-4,10,12,16,22,24-hexamethyl-1,7,13,19-tetraoxa-4,10,16,22-tetraazacyclotetracosan-2,5,8,11,14,17,20,23-octaone], the minimal effective concentration was in the range of 0.001 to 0.01 µM.

For the compound `Cc1nccn1Cc1ccc(C[C@H]2OC(=O)[C@H](CC(C)C)N(C)C(=O)[C@@H](C)OC(=O)[C@H](CC(C)C)N(C)C(=O)[C@@H](Cc3cccc(Cn4ccnc4C)c3)OC(=O)[C@H](CC(C)C)N(C)C(=O)[C@@H](C)OC(=O)[C@H](CC(C)C)N(C)C2=O)cc1` [Example 7-1, (3S,6R,9S,12R,15S,18R,21S,24R)-3,9,15,21-tetraisobutyl-4,6,10,16,18,22-hexamethyl-12-[[3-[(2-methylimidazol-1-yl)methyl]phenyl]methyl]-24-[[4-[(2-methylimidazol-1-yl)methyl]phenyl]methyl]-1,7,13,19-tetraoxa-4,10,16,22-tetrazacyclotetracosane-2,5,8,11,14,17,20,23-octaone], the minimal effective concentration lay in the range of 0.01 to 0.1 µM.

Take `CC(C)C[C@H]1C(=O)O[C@H](Cc2cccc(Cn3ccnc3)c2)C(=O)N(C)[C@@H](CC(C)C)C(=O)O[C@H](C)C(=O)N(C)[C@@H](CC(C)C)C(=O)O[C@H](Cc2ccc(Cn3ccnc3)cc2)C(=O)N(C)[C@@H](CC(C)C)C(=O)O[C@H](C)C(=O)N1C` [Example 7-2, (3S,6R,9S,12R,15S,18R,21S,24R)-6-(3-((1H-imidazol-1-yl)methyl)benzyl)-18-(4-((1H-imidazol-1-yl)methyl)benzyl)-3,9,15,21-tetraisobutyl-4,10,12,16,22,24-hexamethyl-1,7,13,19-tetraoxa-4,10,16,22-tetraazacyclotetracosan-2,5,8,11,14,17,20,23-octaone]: the minimal effective concentration lay in the range of 0.01 to 0.1 µM.

`CCc1nccn1Cc1ccc(C[C@H]2OC(=O)[C@H](CC(C)C)N(C)C(=O)[C@@H](C)OC(=O)[C@H](CC(C)C)N(C)C(=O)[C@@H](Cc3cccc(Cn4ccnc4CC)c3)OC(=O)[C@H](CC(C)C)N(C)C(=O)[C@@H](C)OC(=O)[C@H](CC(C)C)N(C)C2=O)cc1` [Example 7-4, (3S,6R,9S,12R,15S,18R,21S,24R)-6-[[3-[(2-ethylimidazol-1-yl)methyl]phenyl]methyl]-18-[[4-[(2-ethylimidazol-1-yl)methyl]phenyl]methyl]-3,9,15,21-tetraisobutyl-4,10,12,16,22,24-hexamethyl-1,7,13,19-tetraoxa-4,10,16,22-tetrazacyclotetracosane-2,5,8,11,14,17,20,23-octaone]: the minimal effective concentration lay within 0.01 to 0.1 µM.

As to `CC(C)C[C@H]1C(=O)O[C@H](Cc2cccc(Cn3ccnc3C3CC3)c2)C(=O)N(C)[C@@H](CC(C)C)C(=O)O[C@H](C)C(=O)N(C)[C@@H](CC(C)C)C(=O)O[C@H](Cc2ccc(Cn3ccnc3C3CC3)cc2)C(=O)N(C)[C@@H](CC(C)C)C(=O)O[C@H](C)C(=O)N1C` [Example 7-7, (3S,6R,9S,12R,15S,18R,21S,24R)-6-[[3-[(2-cyclopropylimidazol-1-yl)methyl]phenyl]methyl]-18-[[4-[(2-cyclopropylimidazol-1-yl)methyl]phenyl]methyl]-3,9,15,21-tetraisobutyl-4,10,12,16,22,24-hexamethyl-1,7,13,19-tetraoxa-4,10,16,22-tetrazacyclotetracosane-2,5,8,11,14,17,20,23-octaone], the minimal effective concentration was 0.01 to 0.1 µM.

In the case of `CC(C)C[C@H]1C(=O)O[C@H](Cc2cccc(Cn3ccnc3CO)c2)C(=O)N(C)[C@@H](CC(C)C)C(=O)O[C@H](C)C(=O)N(C)[C@@H](CC(C)C)C(=O)O[C@H](Cc2ccc(Cn3ccnc3CO)cc2)C(=O)N(C)[C@@H](CC(C)C)C(=O)O[C@H](C)C(=O)N1C` [Example 7-11, (3S,6R,9S,12R,15S,18R,21S,24R)-6-(3-((2-(hydroxymethyl)-1H-imidazol-1-yl)methyl)benzyl)-18-(4-((2-(hydroxymethyl)-1H-imidazol-1-yl)methyl)benzyl)-3,9,15,21-tetraisobutyl-4,10,12,16,22,24-hexamethyl-1,7,13,19-tetraoxa-4,10,16,22-tetraazacyclotetracosan-2,5,8,11,14,17,20,23-octaone], the minimal effective concentration lay within 0.01 to 0.1 µM.

Take `CC(C)C[C@H]1C(=O)O[C@H](Cc2ccc(Cn3ccnc3)cc2)C(=O)N(C)[C@@H](CC(C)C)C(=O)O[C@H](C)C(=O)N(C)[C@@H](CC(C)C)C(=O)O[C@H](Cc2ccccc2)C(=O)N(C)[C@@H](CC(C)C)C(=O)O[C@H](C)C(=O)N1C` [Example 8-2, (3S,6R,9S,12R,15S,18R,21S,24R)-6-benzyl-18-[[4-(imidazol-1-ylmethyl)phenyl]methyl]-3,9,15,21-tetraisobutyl-4,10,12,16,22,24-hexamethyl-1,7,13,19-tetraoxa-4,10,16,22-tetrazacyclotetracosane-2,5,8,11,14,17,20,23-octaone]: the minimal effective concentration was in the range of 0.01 to 0.1 µM.

For `Cc1cn(Cc2ccc(C[C@H]3OC(=O)[C@H](CC(C)C)N(C)C(=O)[C@@H](C)OC(=O)[C@H](CC(C)C)N(C)C(=O)[C@@H](Cc4ccccc4)OC(=O)[C@H](CC(C)C)N(C)C(=O)[C@@H](C)OC(=O)[C@H](CC(C)C)N(C)C3=O)cc2)c(C)n1` [Example 8-5, (3S,6R,9S,12R,15S,18R,21S,24R)-6-benzyl-18-(4-((2,4-dimethyl-1H-imidazol-1-yl)methyl)benzyl)-3,9,15,21-tetraisobutyl-4,10,12,16,22,24-hexamethyl-1,7,13,19-tetraoxa-4,10,16,22-tetraazacyclotetracosan-2,5,8,11,14,17,20,23-octaone], the minimal effective concentration was in the range of 0.01 to 0.1 µM.

For the compound `CC(C)C[C@H]1C(=O)O[C@H](Cc2ccc(Cn3ccnc3I)cc2)C(=O)N(C)[C@@H](CC(C)C)C(=O)O[C@H](C)C(=O)N(C)[C@@H](CC(C)C)C(=O)O[C@H](Cc2ccccc2)C(=O)N(C)[C@@H](CC(C)C)C(=O)O[C@H](C)C(=O)N1C` [Example 8-10, (3S,6R,9S,12R,15S,18R,21S,24R)-6-benzyl-18-(4-((2-iodo-1H-imidazol-1-yl)methyl)benzyl)-3,9,15,21-tetraisobutyl-4,10,12,16,22,24-hexamethyl-1,7,13,19-tetraoxa-4,10,16,22-tetraazacyclotetracosan-2,5,8,11,14,17,20,23-octaone], the minimal effective concentration was 0.01 to 0.1 µM.

Regarding `Cc1ncn(Cc2ccc(C[C@H]3OC(=O)[C@H](CC(C)C)N(C)C(=O)[C@@H](C)OC(=O)[C@H](CC(C)C)N(C)C(=O)[C@@H](Cc4ccccc4)OC(=O)[C@H](CC(C)C)N(C)C(=O)[C@@H](C)OC(=O)[C@H](CC(C)C)N(C)C3=O)cc2)c1C` [Example 8-11, (3S,6R,9S,12R,15S,18R,21S,24R)-6-benzyl-18-(4-((4,5-dimethyl-1H-imidazol-1-yl)methyl)benzyl)-3,9,15,21-tetraisobutyl-4,10,12,16,22,24-hexamethyl-1,7,13,19-tetraoxa-4,10,16,22-tetraazacyclotetracosan-2,5,8,11,14,17,20,23-octaone], the minimal effective concentration fell in the range of 0.01 to 0.1 µM.

The record behind these values is patent US11331369B2, “Endoparasitic depsipeptides” (Zoetis Services LLC, priority 2017, dated 2022).
